Results on four compounds are retold here after US7892767B2, “Phosphospecific chemokine receptor antibodies” (Washington University in St. Louis, priority 2005, dated 2011).

One data set deals with CXCR4 (Homo sapiens, UniProt P61073). The data set is described as follows: Stimulated CXCR4 phosphorylation in LN428 GBM cells (western blot). Format: cell-based. On the set-up: lysates from the glioblastoma cell line LN428, which is known to express high levels of CXCR4; endogenous in cells; host or cells: LN428 GBM cell line. As to the method: Cell Culture, transfections and stimulation of CXCR4 phosphorylation. The U87 glioblastoma multiforme (GBM, grade IV) cell line was obtained from the American Type Culture Collection. The LN428 GBM cell line was a kind gift of Dr Erwin van Meir (Winship Cancer Center, Emory University, Atlanta, Ga.). U87 cells were grown in minimum essential a media supplemented with 10% fetal bovine serum ((FBS), Biomedia, Foster City, Calif.). LN428 cells were grown in DMEM (Fisher, Pittsburgh, Pa.) supplemented with 10% horse serum (Sigma). All cells were grown in the presence of penicillin-streptomycin. The coding sequence for human CXCR4 was obtained by high fidelity RT-PCR (Superscript III Platinum, Invitrogen), and cloned into the expression vector pMSCVneo (Clontech, Palo Alto, Calif.). Transfections were performed with 0.3 μg of plasmid DNA in 20 μl Lipofectamine (Invitrogen)/35 mm^2 tissue culture dish for 9 hours according to the manufacturer's instructions. Cells recovered in Optimem supplemented with 10% FBS. Transfected and non-transfected cells were placed in serum free media for 24 hours prior to treatment with agents to stimulate CXCR4 phosphorylation. Treatment was usually for 0 or 10 minutes with 1 μg/ml CXCL12 (Peprotech, Rocky Hill N.J.), 4 μM 4-Phorbol 12-myristate 13-acetate (PMA) or 10 nM EGF. In some experiments, CXCL12 was washed away and cells were incubated for an additional 20 minutes in serum free media alone.
Chain of CXCR4 (P61073 whole entry): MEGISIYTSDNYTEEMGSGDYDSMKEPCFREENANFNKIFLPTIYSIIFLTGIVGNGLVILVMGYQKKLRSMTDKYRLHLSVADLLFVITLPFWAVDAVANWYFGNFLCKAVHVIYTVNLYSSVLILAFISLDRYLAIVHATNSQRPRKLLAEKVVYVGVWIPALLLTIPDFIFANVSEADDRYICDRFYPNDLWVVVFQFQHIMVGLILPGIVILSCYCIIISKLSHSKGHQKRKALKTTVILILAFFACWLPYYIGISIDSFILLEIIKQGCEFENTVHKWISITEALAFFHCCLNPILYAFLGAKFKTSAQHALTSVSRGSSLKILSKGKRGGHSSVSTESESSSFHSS
Western Blot Analysis. Whole-cell extracts were obtained by lysing cells with lysis buffer (20 mM Tris pH 7.4, 137 mM NaCl, 10% Glycerol and 1% Triton X-100) supplemented with phosphatase inhibitor cocktail set II (Calbiochem, La Jolla, Calif.) and protease inhibitors PMSF (1 mM), leupeptin (0.005 mg/ml) and aprotonin (0.005 mg/ml). The proteins (50-75 μg) were resolved with 10% Bis-Tris gels (Invitrogen) and transferred onto the nitrocellulose membrane Hybond ECL (Amersham, Piscataway, N.J.) according to standard protocols. Polyclonal anti-CXCR4 antibody was used at a 1:500 dilution and P338-CXCR4 and P339-CXCR4 directed antibodies were used at 1:100 dilutions overnight at 4° C. This was followed by incubation with horseradish peroxidase-conjugated secondary antibody (1:15,000; Bio-Rad). Peroxide activity was detected using the enhanced chemiluminescence Supersignal West Dura system (Pierce, Rockford, Ill.). Mouse anti-actin antibody at a concentration of 1:1500 was used as a loading control. Peptide competitions and lambda phosphatase treatment were performed as described above.
The utility of these antibodies for evaluating the relationship between ligand binding and CXCR4 function is dependent upon their ability to distinguish a ligand activated form of the receptor. Serum starvation increased CXCL12 responsiveness (data not shown), and for all of these experiments LN428 GBM cells were serum starved for 24 hours prior to CXCL12 treatment. Serum starved LN428 cells were treated with 1 μg/ml CXCL12 for 0 or 10 minutes and the abundance of phospho-CXCR4 was determined by western blot and immuno-localization in fixed cells. […] A similar CXCL12-induced increase in P339-CXCR4 (FIG. 3B), but not P338-CXCR4 (data not shown) immunoreactivity was seen by immunofluorescent analysis of paraformaldehyde fixed cells. After 10 minutes of exposure to CXCL12, P339-CXCR4 can be seen localized to the surface of LN428 cells (FIG. 3B). CXCL12 was then washed away and cells were incubated in its absence for an additional 20 minutes. Surface labeling declined as a function of time and P339-CXCR4 was seen accumulating intracellularly.
Whether this is the only kinase that can phosphorylate these residues is unclear. The observation that protein kinase C (PKC) stimulated CXCR4 internalization also depends upon phosphorylation of this region of the molecule raises the question of whether these sites might also be PKC phosphorylation sites (17, 19, 27, 28). […]
Background: Immunoblotting shows a protein as a band on a membrane.

The subject of data set [1] is Nf1−/− astrocytes. The data set is described as follows: Intracellular cAMP by ELISA, Nf1−/− astrocytes. Format: cell-based, mouse. As to the method: (§1) cAMP measurements. cAMP was measured by ELISA (Cayman Chemical Company, Ann Arbor, Mich. or Assay Designs, Ann Arbor, Mich.). Briefly, astrocyte cultures were lysed in 0.1 N HCl. After the removal of cellular debris, soluble cellular extract was dried down and resuspended in EIA buffer. Experimental samples and cAMP standard curve were acetylated to increase the sensitivity of the assay and incubated with cAMP ACHe tracer and cAMP EIA anti-serum overnight at 4° C. according to the manufacturer's instructions. After extensive washing, bound antibody was measured by spectrophotometric analysis. Concentrations of cAMP were derived from comparison with standard curve according to manufacturer's instructions.
(§2) We evaluated the time dependent changes in intracellular cAMP in Nf1+/+ and Nf1−/− astrocytes after exposure to 0.1 μg/ml CXCL12. […] However, in Nf1+/+ astrocytes, intracellular levels of cAMP rapidly recovered to baseline and oscillated between baseline and 40% of baseline over the 45-minute experimental period (FIG. 10B).
(§3) We hypothesized that if cooperative signaling between Nf1 loss and CXCR4 activation promotes tumor formation through the suppression of cAMP, then agents that alter intracellular cAMP should modulate CXCL12 responses. We treated astrocytes with the adenylyl cyclase (AC) activator forskolin in the presence and absence of CXCL12. […] In these experiments, forskolin elevated intracellular cAMP levels in both Nf1+/+ and Nf1−/− astrocytes with peak values of 17.8+/−0.4 and 19.4+/−4.5 pmol/mg of protein, respectively, after 24 hours of treatment. The effect of forskolin was not abrogated by co-treatment with CXCL12. Under these conditions, cAMP levels were 17.9+/−2.5 and 10.4+/−5.8 pmol/mg of total protein in Nf1+/+ and Nf1−/− astrocytes, respectively. […] The effect of forskolin on CXCL12-mediated Nf1−/− apoptosis was evidenced by changes in the percentage of Nf1−/− astrocytes in the sub-G0 fraction of the cell cycle (FIG. 11B). Thus while astrocyte growth is dependent upon MEK and PI3 kinase activity, CXCL12-induced Nf1−/− astrocyte growth requires the suppression of intracellular cAMP levels.

Data set [2] has as its system Nf1+/+ astrocytes. Description: Intracellular cAMP by ELISA, Nf1+/+ astrocytes. Format: cell-based, mouse. As to the method:
as §1, §2, §3
On the technique in general: In an ELISA, binding on a coated surface is turned into a signal by an enzyme label.

In a further data set the test system is U87 GBM xenografts. The note with it: systemic delivery, reference (3); cited from earlier work.
The subject of a further data set is Daoy xenografts. The settings on record: systemic delivery, reference (3); cited from earlier work.
For data set [3] the following is noted: reference (94), cited from earlier work.
Data set [4] deals with Nf1−/− astrocytes. Description: Cell number by trypan blue exclusion, Nf1−/− astrocytes. Format: cell-based, mouse. The settings on record: data not shown. The procedure: (§4) Culture and treatment of primary astrocytes. Primary cultures of astrocytes were prepared from post-natal day two Nf1^flox/flox mice as previously described (134) and in accordance with established Animal Studies Protocols at Washington University School of Medicine. Cultures were infected with adenovirus containing either Cre recombinase (Nf1−/−) or LacZ (Nf1+/+). Primary cultures of astrocytes were grown under standard adherent conditions in serum free media (DMEM/F12 or Neurobasal (Gibco-BRL)) in the presence or absence of 0.1 μg/ml CXCL12 (Peprotech) and 10 μM Forskolin for 24 hours, as indicated. Cell number was determined after 24 hours by trypan blue exclusion and the growth effects of CXCL12 were derived as follows: ((cell number in the presence of CXCL12—cell number cell in the absence of CXCL12)/cell number in the absence of CXCL12)×100.)
(§5) To determine the biological significance of CXCR4 activation to NF1 glioma biology, we next sought to evaluate the regulation of CXCL12 growth effects by neurofibromin in astrocytes. While the true cell of origin of astrocytomas remains unknown, we utilized primary cultures of cortical astrocytes as a model of a normal counterpart to astrocytoma cells. Astrocytes were derived from Nf1^flox/flox mice and rendered Nf1+/+ or Nf1−/− by infection with adenovirus encoding LacZ or Cre recombinase, respectively.

Data set [5] deals with Nf1+/+ astrocytes. Description: Cell number by trypan blue exclusion, Nf1+/+ astrocytes. The class given is cell-based, mouse. The note with it: data not shown. The procedure:
as §4, §5

[6] abbreviates: 1 μg/ml CXCL12, 4 μM PMA or 10 nM EGF.
Setting [7] is: forskolin 10 μM co-treatment with CXCL12 0.1 μg/ml.

For `CCCCCCCCCCCCCC(=O)O[C@@H]1[C@@H](C)[C@@]2(O)[C@@H](C=C(CO)C[C@]3(O)C(=O)C(C)=C[C@@H]23)[C@@H]2C(C)(C)[C@]12OC(C)=O` [PMA, 4-Phorbol 12-myristate 13-acetate], at CXCR4 (setting [6]), the P338 phosphorylation stimulated entry is recorded as “not” and the P339 phosphorylation entry is “stimulated”. Further, the “P339-CXCR4 immunoreactivity compared with response to CXCL12” value at CXCR4 (4 μM PMA or 10 nM EGF) is on record as “greater”.
`C=C[C@@]1(C)CC(=O)[C@]2(O)[C@@]3(C)[C@@H](O)CCC(C)(C)[C@@H]3[C@H](O)[C@H](OC(C)=O)[C@@]2(C)O1` [forskolin]: the cAMP levels with Nf1−/− astrocytes [1] (setting [7]) was 10.4+/−5.8 pmol/mg of total protein; with Nf1+/+ astrocytes [2] (setting [7]) it was 17.9+/−2.5 pmol/mg of total protein. Moreover, the “peak intracellular cAMP” value was 19.4+/−4.5 pmol/mg of protein with Nf1−/− astrocytes [1] (forskolin 10 μM, 24 hours) and 17.8+/−0.4 pmol/mg of protein in the data set on Nf1+/+ astrocytes [2] (forskolin 10 μM, 24 hours).
On to `c1cc(CN2CCCNCCNCCCNCC2)ccc1CN1CCCNCCNCCCNCC1` [AMD 3100], for which the “intracranial growth of glioblastoma xenografts” value in the data set on U87 GBM xenografts is “blocked the intracranial growth”. Moreover, the “intracranial growth of medulloblastoma xenografts” value in the data set with Daoy xenografts is listed as “blocked the intracranial growth”. Besides, in data set [3] (sustained dosing over a 10 day period), the toxicities entry was “mild toxicities”. Also, the “white blood cell counts” value in data set [3] (throughout an 18 day follow-up period after cessation) is reported as “elevations of white blood cell counts”.
Consider `COc1cccc(-c2cc(=O)c3ccccc3o2)c1N` [PD98059], for which the astrocyte growth result with Nf1−/− astrocytes [4] and in the data set with Nf1+/+ astrocytes [5] was “prevented growth” in each case.
